Measured values published in patent US7943631B2, “Method of treating drug addiction using dextro-morphine” (MCW Research Foundation, Inc., priority 2007, dated 2011).
Read-outs that look alike come from different tables or passages of the source.

Tests used:
[1] = cited from earlier work; for block or reversal of the (+)-morphine-induced attenuation of systemic (−)-morphine-produced antinociception: pretreatment
mice = assay: Tail-flick response after intrathecal injection, mouse spinal cord; conditions: for (−)-morphine-produced tail-flick inhibition after pretreatment given alone (did not affect): 10 μg intrathecal alone, 45 min before (−)-morphine 1 μg, measured 15 min after; for reversal of the (+)-morphine-induced attenuation of (−)-morphine-produced tail-flick inhibition: intrathecal with (+)-morphine 10 pg, BD1047 1-10 μg, (+)-pentazocine 0.1-10 μg, in a dose-dependent manner
rats [2] = assay: Conditioned place preference (CPP), drugs given systemically; format: in vivo, rat; conditions: for effect given alone on baseline place conditioning (CPP or conditioned place aversion): 3 μg/kg i.p. alone, rats treated s.c. with saline vehicle
rats [3] = assay: Conditioned place preference, (−)-morphine and (+)-morphine microinjected into the Acb shell; format: in vivo, rat
[4] = test system: extracellular dopamine in the Acb shell; assay: Microdialysis of extracellular dopamine in the Acb shell after microinjection into the VTA, urethane-anesthetized rats; format: in vivo, rat
Experimental: Groups of rats were microinjected with endomorphin-1 (1, 3 or 10 μg) or vehicle into the VTA (A). In other groups of rats, (−)-naloxone (4 or 40 ng) or vehicle was co-microinjected into the VTA with endomorphin-1 (10 μg). The perfusates from the microdialysis probe at the nucleus accumbens shell were collected every 15 min from 30 min before microinjection and continuously collected for another 120 min (A) or 105 min (B) after microinjection. The perfusates were then analyzed their dopamine level. […] (B) For the group of rats injected with different dose of (−)-naloxone+endomorphin-1 versus vehicle+endomorphin-1, Finteraction (18, 150)=3.338, Ftreatment (2, 150)=7.671, Ftime (9, 150)=11.17, *P<0.01; only the data of the dopamine level after the 0 min time point were used for the statistic analysis; the group of rats microinjected with vehicle alone in (B) was not included in the statistic analysis.
. The perfusates were then analyzed their dopamine level. […]; only the data of the dopamine level after the 0 min time point were used for statistic analysis; the vehicle pretreatment followed by vehicle microinjected group was not included in the statistic analysis.
Groups of rats were microinjected with a various dose of endomorphin-1 (1, 3 and 10 μg) or vehicle given into the VTA and the release of dopamine from the Acb shell were studied. […] The dopamine level returned to baseline 60 min thereafter (FIG. 8A). To determine if the increased release of dopamine induced by endomorphin-1 is mediated by the stimulation of μ-opioid receptors, the effect of (−)-naloxone on the increased release of dopamine induced by endomorphin-1 was then studied.

rats [5] = test system: rats
[6] = cited from earlier work; for production of conditioned place preference or aversion: 4 mg/kg s.c., given systemically, Mucha and Herz 1986; for block of the CPP produced by (−)-morphine: Olmstead and Burns 2005

CC(C)=CCN1CCC2(C)c3cc(O)ccc3CC1C2C (single isomer, unassigned; (+)) [(+)-pentazocine]
effect against morphine, both given spinally ([1]; 13 μg against morphine 700 ng, mice, Mei and Pasternak 2002): without effect against morphine | effect on (−)-morphine-produced analgesia, systemic administration ([1]; 5 or 10 mg/kg, Chien and Pasternak 1994): antagonizes (−)-morphine-produced analgesia | (−)-morphine-produced tail-flick inhibition after pretreatment given alone (did not affect) (mice): 8.89 ± 0.53 s | reversal of the (+)-morphine-induced attenuation of (−)-morphine-produced tail-flick inhibition (mice): reversed

CN1CC[C@]23c4c5ccc(O)c4O[C@H]2[C@@H](O)C=C[C@H]3[C@H]1C5 [(+)-morphine]
effect given alone on baseline place conditioning (CPP or conditioned place aversion) (rats [2]): did not affect the baseline place conditioning | effect given alone on baseline place conditioning (CPP or conditioned place aversion) (rats [2]; listed as dextro-morphine): did not produce CPP nor conditioned place aversion | attenuation of (−)-morphine-produced CPP at higher dose (rats [2]; i.p. pretreatment 100 μg/kg, 1 h before (−)-morphine sulfate 5 mg/kg s.c.): did not attenuate the (−)-morphine-produced CPP | attenuation of (−)-morphine-produced CPP (rats [2]; i.p. pretreatment 0.1 to 3 μg/kg, 1 h before (−)-morphine sulfate 5 mg/kg s.c.): dose-dependently attenuated the (−)-morphine-produced CPP | dose of maximal inhibition of the morphine-produced CPP (U-shaped dose-response curve) (rats [2]; i.p., dose range 0.1 to 100 μg/kg): 3 µg/kg | attenuation of (−)-morphine-produced conditioned place preference (rats [3]; 0.1 to 10 pg into the Acb shell, 45 min before (−)-morphine 5 μg, same site): dose-dependently attenuated the (−)-morphine-produced conditioned place preference | production of conditioned place preference given alone (rats [3]; 3 to 100 pg into the Acb shell, alone): did not produce any conditioned place preference | attenuation of (−)-morphine-produced conditioned place preference at higher doses (rats [3]; 30, 100 and 1000 pg into the Acb shell, 45 min before (−)-morphine 5 μg): did not attenuate the (+)-morphine-produced conditioned place preference | dose of maximal inhibition (U-shape dose-response curve) (rats [3]; into the Acb shell, dose range 0.1 to 1000 pg): 3 pg | block of the endomorphin-1-induced increase of extracellular dopamine ([4]; 3 pg into the VTA, 45 min before endomorphin-1 10 μg): completely blocked the increase of the extracellular dopamine in the Acb shell | effect on basal levels of extracellular dopamine ([4]; microinjection into the VTA): did not affect the basal levels of extracellular dopamine in the Acb shell | block of the nicotine-produced increase of conditioned place preference at single dose (rats [5]; 0.3 pg into the Acb, nicotine 20 μg): completely block the nicotine-produced increase of the conditioned place preference | block of the nicotine-produced increase of conditioned place preference (rats [5]; pretreatment 0.03 to 3 pg into the Acb, nicotine 20 μg): blocked dose-dependently | production of conditioned place preference or aversion [6]: does not produce any conditioned place preference nor does it produce any conditioned place aversion | attenuation of antinociception produced by (−)-morphine given systemically ([1]; pretreated systemically, Wu et al., 2007): attenuates the antinociception produced by (−)-morphine given systemically | effect on (−)-morphine-produced tail-flick inhibition (mice; 10 pg intrathecal, 45 min before (−)-morphine 1 μg intrathecal): attenuated the (−)-morphine-produced tail-flick inhibition

C=CCN1CC[C@]23c4c5ccc(O)c4O[C@H]2C(=O)CC[C@]3(O)[C@H]1C5 [(+)-naloxone]
block or reversal of the (+)-morphine-induced attenuation of systemic (−)-morphine-produced antinociception ([1]; Wu et al., 2007): blocked or reversed

CN1CC[C@]23c4c5ccc(O)c4O[C@H]2[C@@H](O)C=C[C@H]3[C@H]1C5.O=S(=O)(O)O [(−)-morphine sulfate, (−)-Morphine sulfate]
production of CPP at higher dose (rats [2]; rats, s.c., 10 mg/kg): produced no more increase of the CPP | production of CPP (rats [2]; rats, s.c., 1 and 5 mg/kg): dose-dependently produced CPP | production of conditioned place preference at higher dose (rats [3]; 10 μg into the Acb shell): produced no further increase of conditioned place preference | production of conditioned place preference (rats [3]; 2.5 or 5 μg into the Acb shell): dose-dependently produced conditioned place preference | production of conditioned place preference or aversion [6]: produces marked conditioned place preference

Br.Br.CN(C)CCN(C)CCc1ccc(Cl)c(Cl)c1 [BD1047, N-[2-(3,4-Dichlorophenyl)ethyl]-N-methyl-2-(dimethylamino)ethylamine dihydrobromide]
effect given alone on the morphine-produced CPP (rats [2]; 3 mg/kg i.p. alone, morphine sulfate 5 mg/kg s.c.): did not affect the morphine-produced CPP | effect given alone on baseline place preference (rats [2]; 3 mg/kg i.p. alone, rats treated with saline vehicle): nor did it affect the baseline place preference | reversal of the attenuation of (−)-morphine-produced CPP induced by (+)-morphine (rats [2]; 1, 3 or 6 mg/kg i.p. with (+)-morphine 3 μg/kg, 1 h before morphine sulfate 5 mg/kg s.c.): dose-dependently reversed the attenuation of the morphine-produced CPP | block or reversal of the (+)-morphine-induced attenuation of systemic (−)-morphine-produced antinociception ([1]; Wu et al., 2007): blocked or reversed | (−)-morphine-produced tail-flick inhibition after pretreatment given alone (did not affect) (mice): 9.19 ± 0.42 s | reversal of the (+)-morphine-induced attenuation of (−)-morphine-produced tail-flick inhibition (mice): reversed

C=CCN1CC[C@]23c4c5ccc(O)c4O[C@H]2/C(=N/N=C2\CC[C@@]4(O)[C@H]6Cc7ccc(O)c8c7[C@@]4(CCN6CC=C)[C@H]2O8)CC[C@@]3(O)[C@H]1C5 [naloxonazine]
block of the CPP produced by (−)-morphine [6]: blocked

O=C1CC[C@@]2(O)[C@H]3Cc4ccc(O)c5c4[C@@]2(CCN3CC2CC2)[C@H]1O5 [naltrexone]
block of the CPP produced by (−)-morphine [6]: blocked

CN1CCCC1c1cccnc1 (stereo not shown) [nicotine]
production of conditioned place preference at higher dose (rats [5]; 40 μg microinjected into the Acb): produced less increase of the conditioned place preference than that of 20 μg of nicotine | production of conditioned place preference (rats [5]; 5 to 20 μg microinjected into the Acb): dose-dependently increased the conditioned place preference

(−)-naloxone
attenuation of the endomorphin-1-induced increase of extracellular dopamine ([4]; 40 ng co-administered into the VTA with endomorphin-1 10 μg): attenuated the increase of the extracellular dopamine in the Acb shell | block or reversal of the (+)-morphine-induced attenuation of systemic (−)-morphine-produced antinociception ([1]; Wu et al., 2007): blocked or reversed

Endomorphin-1
extracellular dopamine in the Acb shell ([4]; 10 μg into the VTA, 15 min after injection): caused an increase of the extracellular dopamine in the Acb shell | time for the dopamine level to return to baseline ([4]; 10 μg into the VTA, thereafter): 60 min
